Results on 2 molecules are retold here after ChEMBL document CHEMBL3813606, “Synthesis and skin gene analysis of 4'-acetoxy-resveratrol (4AR), therapeutic potential for dermal applications” (Bioorg Med Chem Lett, 2016).

Data set [1] concerns Zone of skin. The data set can be described thus: Toxicity in human epidermal full thickness skin cultures assessed as intact and healthy stratum corneum at 1 % after 24 hrs by hematoxylin/eosin staining based assay.
Data set [2] relates to Zone of skin. Kind of data set: Toxicity in human epidermal full thickness skin cultures assessed as intact and healthy keratinocytes at 1 % after 24 hrs by hematoxylin/eosin staining based assay.
Data set [3] concerns Zone of skin. The data set can be described thus: Toxicity in human epidermal full thickness skin cultures assessed as intact and healthy fibroblasts at 1 % after 24 hrs by hematoxylin/eosin staining based assay.
Data set [4] has as its system NHDF. Kind of data set: Upregulation of SIRT-1 gene expression in NHDF by real time RT-PCR analysis relative to control. The format is functional, Homo sapiens. In general terms: Quantitative PCR measures a nucleic acid by following its amplification.
The subject of data set [5] is Zone of skin. The data set can be described thus: Upregulation of SIRT-1 gene expression in human epidermal full thickness skin cultures at 1 % after 24 hrs by real time PCR analysis relative to control. The format is functional.
For data set [6], the system named is Zone of skin. The data set can be described thus: Upregulation of procollagen type III gene expression in human epidermal full thickness skin cultures at 1 % after 24 hrs by real time PCR analysis relative to control. The format is functional.
The test system of data set [7] is Zone of skin. The data set can be described thus: Upregulation of type IV collagen alpha 1 gene expression in human epidermal full thickness skin cultures at 1 % after 24 hrs by real time PCR analysis relative to control. The format is functional.
The test system of data set [8] is Zone of skin. The data set can be described thus: Upregulation of type IV collagen alpha 2 gene expression in human epidermal full thickness skin cultures at 1 % after 24 hrs by real time PCR analysis relative to control. The format is functional.
The subject of data set [9] is Zone of skin. The data set can be described thus: Upregulation of elastin gene expression in human epidermal full thickness skin cultures at 1 % after 24 hrs by real time PCR analysis relative to control. The format is functional.
The subject of data set [10] is Zone of skin. Kind of data set: Upregulation of TIMP 1 gene expression in human epidermal full thickness skin cultures at 1 % after 24 hrs by real time PCR analysis relative to control. The format is functional.
The test system of data set [11] is Zone of skin. Kind of data set: Upregulation of TIMP 2 gene expression in human epidermal full thickness skin cultures at 1 % after 24 hrs by real time PCR analysis relative to control. The format is functional.
For data set [12], the system named is Zone of skin. The data set can be described thus: Upregulation of catalase gene expression in human epidermal full thickness skin cultures at 1 % after 24 hrs by qPCR analysis relative to control. The format is functional.
For data set [13], the system named is Zone of skin. Kind of data set: Upregulation of LOX gene expression in human epidermal full thickness skin cultures at 1 % after 24 hrs by qPCR analysis relative to control. It is filed as functional.
In data set [14] the test system is Zone of skin. The data set can be described thus: Upregulation of SOD 1 gene expression in human epidermal full thickness skin cultures at 1 % after 24 hrs by qPCR analysis relative to control. The format is functional.
Data set [15] concerns Zone of skin. The data set can be described thus: Upregulation of SOD 2 gene expression in human epidermal full thickness skin cultures at 1 % after 24 hrs by qPCR analysis relative to control. The format is functional.
For data set [16], the system named is Zone of skin. The data set can be described thus: Upregulation of MT1H gene expression in human epidermal full thickness skin cultures at 1 % after 24 hrs by qPCR analysis relative to control. It is filed as functional.
The subject of data set [17] is Zone of skin. The data set can be described thus: Upregulation of MT2A gene expression in human epidermal full thickness skin cultures at 1 % after 24 hrs by qPCR analysis relative to control. It is filed as functional.
Data set [18] relates to Zone of skin. Kind of data set: Upregulation of FBN 1 gene expression in human epidermal full thickness skin cultures at 1 % after 24 hrs by qPCR analysis relative to control. It is filed as functional.
Data set [19] relates to Zone of skin. Kind of data set: Upregulation of LAMB 1 gene expression in human epidermal full thickness skin cultures at 1 % after 24 hrs by qPCR analysis relative to control. The format is functional.
The test system of data set [20] is Zone of skin. The data set can be described thus: Upregulation of PCNA gene expression in human epidermal full thickness skin cultures at 1 % after 24 hrs by qPCR analysis relative to control. The format is functional.
For data set [21], the system named is Zone of skin. The data set can be described thus: Upregulation of HBEGF gene expression in human epidermal full thickness skin cultures at 1 % after 24 hrs by qPCR analysis relative to control. It is filed as functional.
Data set [22] deals with Zone of skin. The data set can be described thus: Upregulation of IGF 1 gene expression in human epidermal full thickness skin cultures at 1 % after 24 hrs by qPCR analysis relative to control. It is filed as functional.
Data set [23] relates to Zone of skin. Kind of data set: Upregulation of NGF gene expression in human epidermal full thickness skin cultures at 1 % after 24 hrs by qPCR analysis relative to control. The format is functional.
Data set [24] deals with Zone of skin. Kind of data set: Upregulation of TGF gene expression in human epidermal full thickness skin cultures at 1 % after 24 hrs by qPCR analysis relative to control. It is filed as functional.
The nature of data set [25]: Lipophilicity, log P of the compound. The conditions noted are these: octanol/water.

Some results are limits rather than exact numbers.

In the case of `CC(=O)Oc1ccc(/C=C/c2cc(O)cc(O)c2)cc1`, the Activity entry in data set [1] is “Non-toxic”; in data set [2], “Non-toxic”; in [3] it was “Non-toxic”; in [5] it was 335%; in data set [6] it was 220%; in data set [7], 170%. The Activity in data set [8] was found to be 180%; in data set [9], 280%; in data set [10], 250%; in [11], 130%; in data set [12], 160%; in data set [13], 190%. Besides, the Activity in data set [14] is given as 160%; in data set [15], 170%; in [16], 6400%; in [17] it was 340%; in data set [18] it was 130%; in data set [19] it was 140%. Also, the Activity in [20] is 540%; in data set [21], 190%; in [22] it was 264%; in data set [23], 672%; in data set [24] it was 200%. The “fold change (FC)” value in data set [4] is given as above 3.3.

The term logP denotes the decadic logarithm of the partition coefficient of the neutral form, usually between octanol and water. Turning to `Oc1ccc(/C=C/c2cc(O)cc(O)c2)cc1` [RESVERATROL], the logP in data set [25] was 3.1. Moreover, in data set [5], the “fold change (FC)” value is 1.8. This molecule also displayed an Activity in [9] of 180%.
